From ChEMBL document CHEMBL4219171, “Synthesis and investigations into the anticancer and antibacterial activity studies of β-carboline chalcones and their bromide salts” (Bioorg Med Chem Lett, 2018)
In brackets after ≈: the same amount, converted by molar mass. Activity calls are given as the source filed them. No cut-off for these calls is given here.

What was measured:
BXPC-3 = test: Cytotoxicity against human BxPC3 cells after 48 hrs by MTT assay; assay type: functional, cell-based; conditions: BXPC-3, 48 h
LNCaP C4-2 = test: Cytotoxicity against human C4-2 cells after 48 hrs by MTT assay; assay type: functional, cell-based; conditions: LNCaP C4-2, 48 h
PC-3 = test: Cytotoxicity against human PC3 cells after 48 hrs by MTT assay; assay type: functional, cell-based; conditions: PC-3, 48 h
HEK-293T = test: Cytotoxicity against human HEK293T cells after 48 hrs by MTT assay; assay type: cell-based
MDA-MB-231 [1] = test: Cytotoxicity against human MDA-MB-231 cells after 48 hrs by MTT assay; assay type: functional, cell-based; conditions: MDA-MB-231, 48 h
NIH3T3 = test: Cytotoxicity against mouse NIH/3T3 cells after 48 hrs by MTT assay; assay type: cell-based; conditions: NIH3T3, 48 h
MDA-MB-231 [2] = test: Induction of apoptosis in human MDA-MB-231 cells assessed as morphological changes after 24 hrs by acridine orange/ethidium bromide-dual staining based fluorescence microscopic method; assay type: functional, cell-based
HeLa = test: Cytotoxicity against human HeLa cells after 48 hrs by MTT assay; assay type: functional, cell-based
Bacillus subtilis [3] = test: Antibacterial activity against Bacillus subtilis MTCC 121 assessed as zone of inhibition measured after 18 hrs by disc diffusion method; assay type: functional
Staphylococcus aureus [4] = test: Antibacterial activity against Staphylococcus aureus MTCC 96 assessed as zone of inhibition measured after 18 hrs by disc diffusion method; assay type: functional
Enterobacter cloacae [5] = test: Antibacterial activity against Enterobacter cloacae NAIMCC-B-02025 assessed as zone of inhibition measured after 18 hrs by disc diffusion method; assay type: functional
Pseudomonas aeruginosa = test: Antibacterial activity against Pseudomonas aeruginosa MTCC 424 assessed as zone of inhibition measured after 18 hrs by disc diffusion method; assay type: functional
Bacillus subtilis [6] = test: Antibacterial activity against Bacillus subtilis MTCC 121 after 24 hrs by broth microdilution assay; assay type: functional; conditions: MTCC 121, 24 h
Staphylococcus aureus [7] = test: Antibacterial activity against Staphylococcus aureus MTCC 96 after 24 hrs by broth microdilution assay; assay type: functional; conditions: MTCC 96, 24 h
Enterobacter cloacae [8] = test: Antibacterial activity against Enterobacter cloacae NAIMCC-B-02025 after 24 hrs by broth microdilution assay; assay type: functional; conditions: NAIMCC-B-02025, 24 h
Escherichia coli = test: Antibacterial activity against Escherichia coli MTCC 1652 assessed as zone of inhibition measured after 18 hrs by disc diffusion method; assay type: functional

| Structure (SMILES) | IC50 (BXPC-3) | IC50 (LNCaP C4-2) | IC50 (PC-3) | IC50 (HEK-293T) | IC50 (MDA-MB-231 [1]) | IC50 (NIH3T3) | Activity (MDA-MB-231 [2]) | IC50 (HeLa) | inhibition zone (IZ) (Bacillus subtilis [3]) | inhibition zone (IZ) (Staphylococcus aureus [4]) | inhibition zone (IZ) (Enterobacter cloacae [5]) | inhibition zone (IZ) (Pseudomonas aeruginosa) | MIC (Bacillus subtilis [6]) | MIC (Staphylococcus aureus [7]) | MIC (Enterobacter cloacae [8]) | inhibition zone (IZ) (Escherichia coli) |
| --- | --- | --- | --- | --- | --- | --- | --- | --- | --- | --- | --- | --- | --- | --- | --- | --- |
| COc1cccc2c1C(=O)c1c(O)c3c(c(O)c1C2=O)C[C@@](O)(C(=O)CO)C[C@@H]3O[C@H]1C[C@H](N)[C@H](O)[C@H](C)O1 [DOXORUBICIN] | 13.6 µM | 3.2 µM | 10.2 µM | 3.59 µM | 7.85 µM | 21.3 µM | Active |  |  |  |  |  |  |  |  |  |
| C#CC[n+]1ccc2c([nH]c3ccccc32)c1C(=O)/C=C/c1ccc2c(c1)OCO2.[Br-] | 30.1 µM | 24.4 µM | 29.6 µM | 19.1 µM | 21.2 µM | 72.1 µM |  | 25.3 µM | 7 mm | 9 mm | 6 mm | 7 mm |  |  |  |  |
| CN(C)c1ccc(/C=C/C(=O)c2nccc3c2[nH]c2ccccc23)cc1 |  |  |  |  |  |  |  |  | 8 mm | 11 mm | 8 mm |  | 870 µM (≈ 297 µg/mL) | 715 µM (≈ 244 µg/mL) | 880 µM (≈ 300 µg/mL) | 8 mm |
| O=C(/C=C/c1ccc2c(c1)OCO2)c1c2[nH]c3ccccc3c2cc[n+]1Cc1ccccc1.[Br-] | 55.3 µM | 42.1 µM | 79 µM | 55.1 µM | 48.2 µM | 82.2 µM |  | 45.2 µM | 6 mm | 7 mm | 8 mm |  |  |  |  |  |
| C#CC[n+]1ccc2c([nH]c3ccccc32)c1C(=O)/C=C/c1ccc(OC)cc1.[Br-] | > 100 µM | > 100 µM | > 100 µM | > 100 µM | > 100 µM | > 100 µM |  | > 100 µM |  | 9 mm | 6 mm | 7 mm |  |  |  |  |
| COc1cc(/C=C/C(=O)c2c3[nH]c4ccccc4c3cc[n+]2Cc2ccccc2)cc(OC)c1OC.[Br-] | 20 µM | 16.1 µM | 22 µM | 17.2 µM | 16 µM | 55.2 µM | Active | 22.1 µM | 7 mm | 9 mm | 12 mm |  |  |  | 726 µM |  |
| Cc1ccc(/C=C/C(=O)c2nccc3c2[nH]c2ccccc23)cc1 | > 100 µM | > 100 µM | > 100 µM | > 100 µM | > 100 µM | > 100 µM |  | > 100 µM | 12 mm | 10 mm | 10 mm |  | 720 µM (≈ 225 µg/mL) | 820 µM (≈ 256 µg/mL) | 828 µM (≈ 259 µg/mL) |  |
| C#CC[n+]1ccc2c([nH]c3ccccc32)c1C(=O)/C=C/c1cc(OC)c(OC)c(OC)c1.[Br-] | 72 µM | 65.5 µM | 61 µM | 55.1 µM | 59.6 µM | 88 µM |  | 70.1 µM |  | 9 mm | 13 mm | 9 mm |  |  | 590 µM |  |
| CCCC[n+]1ccc2c([nH]c3ccccc32)c1C(=O)/C=C/c1ccc2c(c1)OCO2.[Br-] | > 100 µM | > 100 µM | > 100 µM | > 100 µM | > 100 µM | > 100 µM |  | > 100 µM | 7 mm | 9 mm |  |  |  |  |  |  |
